Test results published in ChEMBL document CHEMBL1201862, “PubChem BioAssay data set” (2004).
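Grown in 96-well plates, cells were treated for 48 hours with each compound at five concentrations. Insufficient inhibition: endpoint recorded as highest concentration tested. The concentration for 50% growth inhibition is given as GI50.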 Activity calls are given as the source filed them. Cut-off read from the data, not from the text of the source: active = GI50 up to about 1.1 µM and inactive = higher.

How the values were obtained:
Assay in all cases: growth of human tumour cells (NCI), 48 h
DLD-1 = system: DLD-1
DMS-114 = system: DMS-114
DMS-273 = system: DMS-273
M19-MEL = system: M19-MEL
XF498 = system: XF498
KM-20L2 = system: KM-20L2
RXF 631 = system: RXF 631
HOP-18 = system: HOP-18

Measured: GI50

CN(C(=O)C12C3C4C1C1C4(C(=O)C45C6C7C4C4C5C6C74C)C3C12C)C(C)(C)C (centres undefined)
inactive: DLD-1 56.5 µM | DMS-114 39.8 µM | DMS-273 53.6 µM | M19-MEL 45.9 µM | XF498 49 µM | KM-20L2 31.2 µM | RXF 631 34.6 µM

OCC1OC(NO)C(O)C(O)C1O (centres undefined)
inactive: DLD-1 > 100 µM | DMS-273 > 100 µM | M19-MEL > 100 µM | XF498 > 100 µM | HOP-18 > 100 µM | KM-20L2 > 100 µM | RXF 631 > 100 µM

C[N+](C)(C)CC(=O)N/N=C(/Cc1cc(=O)oc2cc(O)ccc12)C(=O)Nc1ccc(Cl)cc1
inactive: DLD-1 > 100 µM | DMS-114 > 100 µM | M19-MEL > 100 µM | KM-20L2 > 100 µM | RXF 631 > 100 µM

CC(C)(CN1CCCCC1)C(=O)/C=C/c1ccc(Cl)c(Cl)c1
inactive: DLD-1 1.67 µM | DMS-114 1.56 µM | DMS-273 1.69 µM | M19-MEL 1.63 µM | HOP-18 1.52 µM | RXF 631 1.72 µM

Cc1cc2c(c(C#N)c1C)NC(=O)C(CC(=O)O)C2=O (centres undefined)
inactive: DLD-1 > 100 µM | DMS-114 > 100 µM | DMS-273 > 100 µM | M19-MEL > 100 µM | XF498 > 100 µM | HOP-18 > 100 µM | KM-20L2 > 100 µM | RXF 631 > 100 µM

O=C(Cn1cc(I)c(C(=O)NCC(O)CO)n1)NCC(O)CO (centres undefined)
inactive: DLD-1 > 100 µM | DMS-114 > 100 µM | DMS-273 > 100 µM | M19-MEL > 100 µM | XF498 > 100 µM | HOP-18 > 100 µM | KM-20L2 > 100 µM

CCCCCCCCCCCCCP(=O)(OC)OC
inactive: DLD-1 16.1 µM | DMS-114 21.6 µM | DMS-273 19.1 µM | M19-MEL 19.3 µM | XF498 17.9 µM | HOP-18 18.1 µM | KM-20L2 26.8 µM | RXF 631 17.7 µM

CN/N=C(\C)c1c(O)cc(C)oc1=O
inactive: DLD-1 > 100 µM | M19-MEL > 100 µM | HOP-18 > 100 µM | KM-20L2 > 100 µM | RXF 631 > 100 µM

CC1(C)O[C@@H](CC/C=C/CO)[C@H](CC/C=C/CO)O1
inactive: DLD-1 > 100 µM | DMS-114 > 100 µM | DMS-273 > 100 µM | M19-MEL > 100 µM | XF498 > 100 µM | HOP-18 > 100 µM | KM-20L2 > 100 µM

O=C(O)C(C(=O)C(=O)C(C(=O)O)c1ccc(Cl)cc1)c1ccc(Cl)cc1 (centres undefined)
inactive: DLD-1 3.52 µM | DMS-114 2.24 µM | DMS-273 3.64 µM | M19-MEL 3.39 µM | XF498 2.43 µM | HOP-18 5.32 µM | KM-20L2 3.31 µM

CCCCCCCCCCCCCC(=O)CC(=O)c1c(O)cccc1O
inactive: DLD-1 41.6 µM | DMS-114 21.5 µM | DMS-273 22.1 µM | M19-MEL 30.5 µM | XF498 24.5 µM | HOP-18 33.3 µM | KM-20L2 47.4 µM

CCOC(=O)c1cc(/C=C/C(C)=C/C(=O)OC)n(C)c1C
inactive: DLD-1 67.8 µM | DMS-273 > 100 µM | M19-MEL > 100 µM | XF498 93.1 µM | KM-20L2 74 µM | RXF 631 > 100 µM

O=C(O)CCN(CCCN(CCC(=O)O)CCC(=O)O)CCC(=O)O
inactive: DLD-1 > 100 µM | DMS-114 > 100 µM | DMS-273 > 100 µM | M19-MEL > 100 µM | XF498 > 100 µM | HOP-18 > 100 µM | KM-20L2 > 100 µM | RXF 631 > 100 µM

C[Si](C)(C)CN1C(=O)c2ccccc2C1(O)c1ccccc1 (centres undefined)
inactive: DLD-1 > 100 µM | DMS-114 41.6 µM | DMS-273 56.6 µM | XF498 73.8 µM | HOP-18 > 100 µM | KM-20L2 > 100 µM | RXF 631 88.9 µM

N#C/C(N)=N/c1ccccc1
inactive: DLD-1 > 100 µM | DMS-114 16.9 µM | DMS-273 > 100 µM | M19-MEL > 100 µM | HOP-18 > 100 µM | KM-20L2 > 100 µM | RXF 631 > 100 µM

CC(=O)C=C1Nc2ccccc2N1
inactive: DLD-1 > 100 µM | M19-MEL > 100 µM | XF498 > 100 µM | KM-20L2 > 100 µM | RXF 631 > 100 µM

CC(=O)c1ccc(NC(=O)COC(=O)c2cccc3c(=O)c4ccccc4[nH]c23)cc1
inactive: DLD-1 54 µM | DMS-114 34.8 µM | M19-MEL 25.5 µM | XF498 23.1 µM | HOP-18 > 100 µM | KM-20L2 > 100 µM | RXF 631 20.6 µM
